Structures can show the parent of a compound that is named as a salt. Where two headings read alike, the source gives them in different places.
Tests used:
Format in all cases: physicochemical
[1] = Thermo-Gravimetric Analysis (TGA)
Description: In the examples below, the solids are analyzed by XRPD to determine if they are crystalline and if so, by DSC to determine melting point and TGA to determine if hydrated/solvated.

[2] = Crystal form conversion on drying
Description: About 0.25 mL of ethyl acetate was added to a glass vial containing about 40 mg of freebase (R)-2-(4-fluorophenyl)-2-(methylamino)cyclohexan-1-one. One molar equivalent of citric acid was added to the vial, and the contents were stirred at room temperature.

Sublimation on heating = conditions: heated up to 300 °C
Description: The Form 1 polymorph was heated up to 300 °C. […] Polymorph screening of the deuterated 1R HCl salt of Example 2 (Form 1).

[3] = Dynamic Vapor Sorption (DVS)
Description: 1R HCl Form 1 was analyzed by DVS (0-90-O-90-0% RH at 25 °C). The DVS behavior is shown in FIGS. 5(a) and (b), wherein 1 plots cycle 1 desorption, 2 plots cycle 2 sorption, 3 plots cycle 2 desorption, 4 plots cycle 1 sorption, 5 plots target % P/Po and 6 plots dm dry line, wherein P is the vapor pressure, Po is the saturation vapor pressure and P/Po is equivalent to % relative humidity for water.

[4] = Approximate solubility in 20 solvents; conditions: for solubility: RT
Description: The approximate solubility of the crystalline hydrochloride salt product of Example 1 (1R HCl Form 1) was estimated in 20 solvents as follows: Approximately 10 mg of the product of Example 1 is placed into a 4.0 mL vial, to which 25 μL of solvent at RT is added, and then the vial with its contents is shaken and stirred. If no clear solution is obtained, another 25 μL of solvent is added to the vial and then the vial with its contents is shaken and stirred again. This process is repeated until 4.0 mL solvent is added, and then the contents of the vial are stirred overnight.

[5] = drying in a vacuum oven at room temperature

In the case of `CN[C@@]1(c2ccc(F)cc2)CCCCC1=O` [Fum-1, (R)-2-(4-fluorophenyl)-2-(methylamino)cyclohexan-1-one Fum-1], the TGA weight loss ([1]; by 100 °C) is reported as “about 0.66%”.
With `CN[C@@]1(c2ccc(F)cc2)CCCCC1=O` [Phos-2, (R)-2-(4-fluorophenyl)-2-(methylamino)cyclohexan-1-one Phos-2] the TGA weight loss ([1]; by 100 °C) was “about 0.90%”.
In the case of `CN[C@@]1(c2ccc(F)cc2)CCCCC1=O` [Sulfate-3, (R)-2-(4-fluorophenyl)-2-(methylamino)cyclohexan-1-one Sulfate-3], the Crystal form conversion ([2]; further dried with heating at 40 °C) is reported as “a different XRPD diffractogram was obtained”.
For `CN[C@@]1(c2ccc(F)cc2)CCCCC1=O` [Tar-5, (R)-2-(4-fluorophenyl)-2-(methylamino)cyclohexan-1-one Tar-5], the TGA weight loss ([1]; by 100 °C) was “about 0.26%”.
With `CN[C@@]1(c2ccc(F)cc2)CCCCC1=O` [Tar-2, (R)-2-(4-fluorophenyl)-2-(methylamino)cyclohexan-1-one Tar-2] the Crystal form conversion [2, 5] was “transitioned into Tar-5”.
With `CN[C@@]1(c2ccc(F)cc2)CCCCC1=O` [Mali-1, (R)-2-(4-fluorophenyl)-2-(methylamino)cyclohexan-1-one-L-Mali-1] the TGA weight loss ([1]; room temperature to 100 °C) was “about 0.70%”.
In the case of `CN[C@@]1(c2ccc(F)cc2)CCCCC1=O` [Phos-1, (R)-2-(4-fluorophenyl)-2-(methylamino)cyclohexan-1-one Phos-1], the TGA weight loss ([1]; by 100 °C) is reported as “about 0.11%”.
With `CN[C@@]1(c2ccc(F)cc2)CCCCC1=O` [Tar-6, (R)-2-(4-fluorophenyl)-2-(methylamino)cyclohexan-1-one Tar-6] the TGA weight loss ([1]; by 100 °C) was “about 10.67%”.
In the case of `CN[C@@]1(c2ccc(F)cc2)CCCCC1=O` [Cit-1, (R)-2-(4-fluorophenyl)-2-(methylamino)cyclohexan-1-one Cit-1], the Crystal form conversion [2, 5] is reported as “transitioned to a different XRPD pattern”.
In the case of `CN[C@@]1(c2ccc(F)cc2)CCCCC1=O` [Glyc-1, (R)-2-(4-fluorophenyl)-2-(methylamino)cyclohexan-1-one Glyc-1], the TGA weight loss ([1]; room temperature to 100 °C) is reported as “about 1.89%”.
With `CN[C@@]1(c2ccc(F)cc2)CCCCC1=O` [Tar-4, (R)-2-(4-fluorophenyl)-2-(methylamino)cyclohexan-1-one Tar-4] the Crystal form conversion [2, 5] was “converted into Tar-6”.
For `CN[C@@]1(c2ccc(F)cc2)CCCCC1=O` [Tar-3, (R)-2-(4-fluorophenyl)-2-(methylamino)cyclohexan-1-one Tar-3], the TGA weight loss ([1]; room temperature to 125 °C) was “about 9.95%”.
In the case of `CN[C@@]1(c2ccc(F)cc2)CCCCC1=O` [Hip-1, (R)-2-(4-fluorophenyl)-2-(methylamino)cyclohexan-1-one Hip-1], the TGA weight loss ([1]; room temperature to 100 °C) is reported as “about 0.69%”.
For `CN[C@@]1(c2ccc(F)cc2)CCCCC1=O` [Sulfate-2, (R)-2-(4-fluorophenyl)-2-(methylamino)cyclohexan-1-one Sulfate-2], the Crystal form conversion ([2]; wet cake dried at room temperature) was “a different XRPD diffractogram was obtained”.
For `CN[C@@]1(c2ccc(F)cc2)CCCCC1=O` [1R HCl Form 1, (R)-2-(4-fluorophenyl)-2-(methylamino)cyclohexan-1-one hydrochloride Form 1], the Sublimation (Sublimation on heating) was “can be sublimed from a solid phase to gas phase without passing through the liquid phase”, the “Form of material recovered from sublimation” value (Sublimation on heating; XRPD) was “same XRPD pattern as 1R HCl Form 1” and the “DVS moisture sorption behavior” value ([3]; 25 °C, 0-90-0-90-0% RH) was “absorbs significant moisture above ~80% RH but readily releases the moisture at lower humidity”. The “Crystal form of post-DVS sample” value ([3]; post-DVS, kept at 0% RH for 3 days) was “same crystal form as the starting solids”, the “Hydrate/solvate state from TGA” value ([1]; heated from room temperature to 100 °C) was “not a hydrate or solvate” and the TGA weight loss ([1]; room temperature to 100 °C) was 0.34%. For the same molecule, the solubility ([4]; 1,4-dioxane, organic solvent or mixture, 1,4-Dioxane, read-out: Solubility) was 2.9 to 3.3 mg/mL, the solubility ([4]; 2-methf, organic solvent or mixture, 2-MeTHF, read-out: Solubility) was < 2.6 mg/mL and the solubility ([4]; DCM) was 194 to 388 mg/mL. The solubility ([4]; DMF) was 192 to 384 mg/mL, the solubility ([4]; DMSO) was >395 mg/mL and the solubility ([4]; EtOH) was 215 to 431 mg/mL. For the same molecule, the solubility ([4]; MeOH) was >486 mg/mL, the solubility ([4]; Water) was >464 mg/mL and the solubility ([4]; acetone, organic solvent or mixture, Acetone, read-out: Solubility) was 8.8 to 9.7 mg/mL. The solubility ([4]; acn, organic solvent or mixture, ACN, read-out: Solubility) was 32 to 38 mg/mL, the solubility ([4]; dcm, organic solvent or mixture, DCM, read-out: Solubility) was > 300 mg/mL and the solubility ([4]; dmf, organic solvent or mixture, DMF, read-out: Solubility) was > 300 mg/mL. The solubility ([4]; dmso, organic solvent or mixture, DMSO, read-out: Solubility) was > 300 mg/mL, the “Solubility (in words)” value ([4]; esters, ketones, ethers, and alkanes) was “Limited or no solubility” and the solubility ([4]; etoac, organic solvent or mixture, EtOAc, read-out: Solubility) was < 2.6 mg/mL. The solubility ([4]; etoh, organic solvent or mixture, EtOH, read-out: Solubility) was > 300 mg/mL, the solubility ([4]; heptane, organic solvent or mixture, Heptane, read-out: Solubility) was < 2.7 mg/mL and the solubility ([4]; ipa, organic solvent or mixture, IPA, read-out: Solubility) was 50 to 67 mg/mL. The solubility ([4]; ipac, read-out: Solubility) was < 2.4 mg/mL, the solubility ([4]; mek, read-out: Solubility) was 3.1 to 3.7 mg/mL and the solubility ([4]; meoh, organic solvent or mixture, MeOH, read-out: Solubility) was > 300 mg/mL. The solubility ([4]; mibk, read-out: Solubility) was < 2.7 mg/mL, the solubility ([4]; mtbe, organic solvent or mixture, MTBE, read-out: Solubility) was < 2.5 mg/mL and the solubility ([4]; npa, read-out: Solubility) was 51 to 69 mg/mL. For the same molecule, the solubility ([4]; thf, organic solvent or mixture, THF, read-out: Solubility) was < 3 mg/mL, the solubility ([4]; toluene, organic solvent or mixture, Toluene, read-out: Solubility) was < 2.7 mg/mL and the solubility ([4]; water, read-out: Solubility) was > 300 mg/mL.
For `CN[C@@]1(c2ccc(F)cc2)CCCCC1=O` [Mal-2, (R)-2-(4-fluorophenyl)-2-(methylamino)cyclohexan-1-one Mal-2], the TGA weight loss ([1]; by 100 °C) was “about 0.11%”.
In the case of `CN[C@@]1(c2ccc(F)cc2)CCCCC1=O` [MSA-1, (R)-2-(4-fluorophenyl)-2-(methylamino)cyclohexan-1-one MSA-1], the TGA weight loss ([1]; by 100 °C) is reported as “about 0.01%”.
In the case of `CN[C@@]1(c2ccc(F)cc2)CCCCC1=O` [Sulfate-1, (R)-2-(4-fluorophenyl)-2-(methylamino)cyclohexan-1-one Sulfate-1], the TGA weight loss ([1]; by 100 °C, listed as sulfate salt) is reported as “about 0.08%”.
In the case of `CN[C@@]1(c2ccc(F)cc2)CCCCC1=O` [Mal-1, (R)-2-(4-fluorophenyl)-2-(methylamino)cyclohexan-1-one Mal-1], the TGA weight loss ([1]; by 100 °C) is reported as “about 0.16%”.
For `CN[C@@]1(c2ccc(F)cc2)CCCCC1=O` [Cit-2, (R)-2-(4-fluorophenyl)-2-(methylamino)cyclohexan-1-one Cit-2], the TGA weight loss ([1]; room temperature to 100 °C) was “about 1.33%”.

Reference: US20260365611A1, “CRYSTALLINE SALTS OF 2-PHENYL-2-AMINOCYCLOHEXAN-1-ONE DERIVATIVES” (priority 2023, published 2026)
